Here are results for 1 compound from patent US20230235378A1, “LZHEIMER'S DISEASE-SPECIFIC ALTERATIONS OF PROTEIN KINASE C EPSILON (PKC-EPSILON PROTEIN LEVELS” (WEST VIRGINIA UNIVERSITY BOARD OF GOVERNORS ON BEHALF OF …, priority 2010, published 2023).

In one series the target is T1, PKCα (Homo sapiens, UniProt P17252).
T1 construct: purchased Calbiochem (San Diego, Calif.)
The series is described as follows: Protein kinase C assay with recombinant PKC alpha isoform ([γ32P]ATP, histones). The class given is biochemical. The note with it: data not shown. As for the experimental part: Protein Kinase C Assay. Recombinant PKC (1 ng of alpha or epsilon isoform) was mixed with the BR-101 (DCP-LA) in the presence of 10 micromolar histones, 5 mM CaCl2, 1.2 μg/μl phosphatidyl-L-serine, 0.18 μg/μl 1,2-dioctanoyl-sn-glycerol (DAG), 10 mM MgCl2, 20 mM HEPES (pH 7.4), 0.8 mM EDTA, 4 mM EGTA, 4% glycerol, 8 μg/ml aprotinin, 8 μg/ml leupeptin, and 2 mM benzamidine. 0.5 micro Ci [γ32P]ATP was added. The incubation mixture was incubated for 15 min at 37 degrees in a total volume of 10 microliters. The reaction was stopped by spotting the reaction mixtures on 1×2 cm strips of cellulose phosphate paper (Whatman P81) and immediately washing twice for 1 hr in 0.5% H3PO4. The cellulose phosphate strips were counted in a scintillation counter. In some experiments, phosphatidylserine, diacylglycerol, and/or calcium were removed.

For the next series, the target named is T2, purified PKC (Homo sapiens, UniProt Q02156).
T2 construct: purchased Calbiochem
T2 sequence (Q02156 1-737): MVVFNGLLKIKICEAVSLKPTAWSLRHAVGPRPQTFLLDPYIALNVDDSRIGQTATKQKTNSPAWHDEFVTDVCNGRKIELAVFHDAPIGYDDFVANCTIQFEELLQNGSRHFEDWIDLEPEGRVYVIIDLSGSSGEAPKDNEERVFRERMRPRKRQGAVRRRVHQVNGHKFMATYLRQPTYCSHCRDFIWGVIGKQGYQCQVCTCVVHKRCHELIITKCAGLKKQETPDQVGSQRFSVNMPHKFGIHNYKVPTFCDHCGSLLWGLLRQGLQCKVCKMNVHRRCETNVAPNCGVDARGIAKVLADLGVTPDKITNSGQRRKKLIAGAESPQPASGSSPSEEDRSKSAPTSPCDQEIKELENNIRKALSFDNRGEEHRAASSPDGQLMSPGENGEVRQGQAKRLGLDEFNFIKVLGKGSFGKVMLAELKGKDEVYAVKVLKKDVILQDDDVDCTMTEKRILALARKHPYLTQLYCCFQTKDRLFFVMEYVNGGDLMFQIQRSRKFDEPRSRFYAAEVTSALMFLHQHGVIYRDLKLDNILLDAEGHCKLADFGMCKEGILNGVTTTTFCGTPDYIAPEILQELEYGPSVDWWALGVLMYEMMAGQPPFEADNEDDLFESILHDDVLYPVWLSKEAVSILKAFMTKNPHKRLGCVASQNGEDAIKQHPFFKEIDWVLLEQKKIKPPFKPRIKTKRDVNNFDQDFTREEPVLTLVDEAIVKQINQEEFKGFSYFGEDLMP
As to the kind of experiment: PKC isozyme specificity: purified PKC preincubated with compound, activity measured radiometrically. The class given is biochemical. The conditions noted are these: 10 μM; data not shown. As for the experimental part:
(§1) Protein Kinase C Assay. Rat hippocampal cells were cultured and scraped in 0.2 ml homogenization buffer (20 mM Tris-HCl, pH 7.4, 50 mM NaF, 1 μg/ml leupeptin, and 0.1 mM PMSF) and homogenized by sonication in a Marsonix micro-probe sonicator (5 sec, 10 W). To measure PKC, 10 μl of cell homogenate or purified PKC isozyme (purchased from Calbiochem) was incubated for 15 min at 37° C. in the presence of 10 μM histones, 4.89 mM CaCl2, 1.2 μg/μl phosphatidyl-L-serine, 0.18 μg/μl 1,2-dioctanoyl-sn-glycerol, 10 mM MgCl2, 20 mM HEPES (pH 7.4), 0.8 mM EDTA, 4 mM EGTA, 4% glycerol, 8 μg/ml aprotinin, 8 μg/ml leupeptin, and 2 mM benzamidine. 0.5 μCi [γ-32P]ATP was added and 32P-phosphoprotein formation was measured by adsorption onto phosphocellulose as described previously. Nelson and Alkon, J. Neurochemistry. 1995; 65: 2350-57. For measurements of activation by BR-101 (DCP-LA) and similar compounds, PKC activity was measured in the absence of diacylglycerol and phosphatidylserine, as described by Kanno et al., and PKC δ, ε, η, and were measured in the absence of added EGTA and CaCl2, as described by Kanno et al., J. Lipid Res. 2006; 47: 1146-50. Low concentrations of Ca2+ are used because high Ca2+ interacts with the PKC phosphatidylserine binding site and prevents activation. For measurements of bryostatin activation, 1,2-diacylglycerol was omitted unless otherwise stated.
(§2) To determine their PKC isozyme specificity, the new compounds were preincubated with purified PKC for five minutes and the PKC activity was measured radiometrically.

In the next series the test system is other PKC isoforms. As to the kind of experiment: PKC isozyme specificity: other PKC isoforms. The note with it: 10 μM; data not shown. The class given is biochemical. As for the experimental part:
as §1, with “Low concentrations of Ca2+ are used because high Ca2+ interacts with the PKC phosphatidylserine binding site and prevents activation. For measurements of bryostatin activation, 1,2-diacylglycerol was omitted unless otherwise stated.” left out
as §2

A further series concerns the target T3, PKCδ (Homo sapiens, UniProt Q05655).
T3 construct: purchased Calbiochem
The series is described as follows: PKC isozyme specificity: PKCδ. The class given is biochemical. The note with it: about 1-100 μM; data not shown. As for the experimental part: as §1, with “Low concentrations of Ca2+ are used because high Ca2+ interacts with the PKC phosphatidylserine binding site and prevents activation. For measurements of bryostatin activation, 1,2-diacylglycerol was omitted unless otherwise stated.” left out
as §2

Another series concerns PKC. The series is described as follows: Sustained PKC activation in primary neurons. The class given is cell-based, rat. The conditions noted are these: sustained activation only observed in primary neurons. As for the experimental part: Cell Culture. Rat hippocampal H19-7/IGF-IR cells (ATCC, Manassas, Va.) were plated onto poly-L-lysine coated plates and grown at 35° C. in DMEM/10% FCS for several days until about 50% coverage was obtained. The cells were then induced to differentiate into a neuronal phenotype by replacing the medium with 5 ml N2 medium containing 10 ng/ml basic fibroblast growth factor at 39° C. and grown in T-75 flasks at 37° C. Human SH-SY5Y neuroblastoma cells (ATCC) were cultured in 45% F 12K/45% MEM/10% FCS. Mouse N2A neuroblastoma cells were cultured in DMEM/10% FCS without glutamine. Rat hippocampal neurons from 18-day-old embryonic
Sprague Dawley rat brains were plated on 12- or 96-well plates coated with poly-D-lysine (Sigma-Aldrich, St. Louis, Mo.) in B-27 neurobasal medium containing 0.5 mM glutamine and 25 μM glutamate (Invitrogen, Carlsbad, Calif.) and cultured for three days in the medium without glutamate. […]
Protein Kinase C Assay. […] 0.5 μCi [γ-32P]ATP was added and 32P-phosphoprotein formation was measured by adsorption onto phosphocellulose as described previously. […] For measurements of activation by BR-101 (DCP-LA) and similar compounds, PKC activity was measured in the absence of diacylglycerol and phosphatidylserine, as described by Kanno et al., and PKC δ, ε, η, and were measured in the absence of added EGTA and CaCl2, as described by Kanno et al., J. Lipid Res. 2006; 47: 1146-50. […]

A short description of series [1]: Cell viability assay (alamar Blue and CyQuant staining). The class given is cell-based. As for the experimental part:
Aß Measurement and Cell Viability Assay. Aß was measured using an Aß 1-42 human fluorimetric ELISA kit (Invitrogen) according to the manufacturer's instructions. Results were measured in a Biotek Synergy HT microplate reader. AlamarBlue and CyQuant NF (Invitrogen) according to the manufacturer's instructions.
On the technique in general: Alamar Blue is a resazurin reagent that responds to reducing activity.

T3 sequence (Q05655 whole entry): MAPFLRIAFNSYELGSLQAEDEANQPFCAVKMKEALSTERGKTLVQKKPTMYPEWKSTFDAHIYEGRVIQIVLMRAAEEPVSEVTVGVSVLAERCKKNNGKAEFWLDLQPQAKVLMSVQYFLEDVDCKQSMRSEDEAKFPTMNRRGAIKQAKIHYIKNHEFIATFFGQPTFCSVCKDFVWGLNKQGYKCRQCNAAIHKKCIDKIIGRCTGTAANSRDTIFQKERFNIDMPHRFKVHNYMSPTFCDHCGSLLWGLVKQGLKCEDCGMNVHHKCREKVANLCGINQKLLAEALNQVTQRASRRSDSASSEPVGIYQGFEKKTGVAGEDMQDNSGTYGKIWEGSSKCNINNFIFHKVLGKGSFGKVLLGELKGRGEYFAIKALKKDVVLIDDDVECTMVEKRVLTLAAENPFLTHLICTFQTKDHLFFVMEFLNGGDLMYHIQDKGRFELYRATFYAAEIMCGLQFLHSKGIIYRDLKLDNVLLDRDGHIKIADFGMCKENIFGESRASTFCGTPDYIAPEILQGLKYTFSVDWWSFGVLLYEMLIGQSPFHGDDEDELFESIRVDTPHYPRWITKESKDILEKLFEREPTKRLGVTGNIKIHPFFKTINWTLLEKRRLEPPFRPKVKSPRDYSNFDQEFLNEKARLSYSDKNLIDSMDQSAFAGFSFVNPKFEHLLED

As for `CCCCCC1CC1CC1CC1CCCCCCCC(=O)O` (stereo not drawn) [BR-101, 8-[2-(2-pentyl-cyclopropylmethyl)-cyclopropyl]-octanoic acid], the “effect on PKCα” value on PKCα is “not affected”. Also, the “activation of PKC” value at purified PKC was “effective activator”. The “effects on the other PKC isoforms” value in the series on other PKC isoforms is recorded as “relatively small effects”. Further, the “effect on PKCδ at higher concentrations” value on PKCδ was “partially inhibited”. For the same compound, the “duration of PKC elevation” value in the series on PKC is recorded as “remained elevated for at least four hours”. In addition, the “effect on cell survival or proliferation” value in series [1] is recorded as “no effect”.
